Each structure is given as a SMILES string. Structures can show the parent of a compound that is named as a salt.

The data set can be described thus: in vitro. The following applies: rat, gh3-tre-luc cells, AC50 (uM) modified / 1000.
For the compound `C=C(C)C1CC=C(C)C(OC(C)=O)C1` (centres unmarked) [Carvyl acetate], the CC50 at 24 h was above 90 µM.

In the case of `NS(=O)(=O)c1ccc(C(=O)O)cc1` [Carzenide], the 50% cytotoxic concentration (CC50) at 24 h is above 50 µM. The figure for `N[C@@H](C(=O)N[C@@H]1C(=O)N2C(C(=O)O)=C(Cl)CS[C@H]12)c1ccccc1` [Cefaclor] is above 50 µM; for `CC1=C(C(=O)O)N2C(=O)[C@@H](NC(=O)[C@H](N)c3ccc(O)cc3)[C@H]2SC1` [Cefadroxil] it is above 20 µM; for `NC(=O)c1cc[n+](CC2=C(C(=O)[O-])N3C(=O)[C@@H](NC(=O)Cc4cccs4)[C@H]3SC2)cc1` [Cefalonium] it is above 20 µM. For `CC(=O)OCC1=C(C(=O)O)N2C(=O)[C@@H](NC(=O)Cc3ccccc3)[C@H]2SC1` [Cefaloram] the value was above 50 µM; for `Cn1nnnc1SCC1=C(C(=O)O)N2C(=O)[C@@H](NC(=O)[C@H](OC=O)c3ccccc3)[C@H]2SC1` [Cefamandole nafate], above 50 µM. For `Cn1nnnc1SCC1=C(C(=O)O)N2C(=O)[C@@H](NC(=O)[C@H](O)c3ccccc3)[C@H]2SC1` [Cefamandole sodium] the value was above 20 µM; for `N[C@@H](C(=O)N[C@@H]1C(=O)N2C(C(=O)O)=C(CSc3c[nH]nn3)CS[C@H]12)c1ccc(O)cc1` [Cefatrizine], above 50 µM; for `Cc1nnc(SCC2=C(C(=O)O)N3C(=O)[C@@H](NC(=O)Cn4cnnn4)[C@H]3SC2)s1` [Cefazolin], above 50 µM.

As to `CC/C=C(\C(=O)N[C@@H]1C(=O)N2C(C(=O)OCOC(=O)C(C)(C)C)=C(COC(N)=O)CS[C@H]12)c1csc(N)n1` [Cefcapene pivoxil hydrochloride], the CC50 at 24 h was above 50 µM. The figure for `C=CC1=C(C(=O)O)N2C(=O)[C@@H](NC(=O)/C(=N\O)c3csc(N)n3)[C@H]2SC1` [Cefdinir] is above 50 µM; for `CO/N=C(\C(=O)N[C@@H]1C(=O)N2C(C(=O)OCOC(=O)C(C)(C)C)=C(/C=C\c3scnc3C)CS[C@H]12)c1csc(N)n1` [Cefditorin pivoxil] it is above 50 µM; for `CO/N=C(\C(=O)N[C@@H]1C(=O)N2C(C(=O)O)=C(C[N+]3(C)CCCC3)CS[C@H]12)c1csc(N)n1` [Cefepime chloride hydrochloride hydrate] it is above 50 µM. The figure for `CO/N=C(\C(=O)N[C@@H]1C(=O)N2C(C(=O)OCOC(=O)C(C)(C)C)=C(C)CS[C@H]12)c1csc(N)n1` [Cefetamet pivoxil HCl] is above 50 µM.

In the case of `C=CC1=C(C(=O)O)N2C(=O)[C@@H](NC(=O)/C(=N\OCC(=O)O)c3csc(N)n3)[C@H]2SC1` [Cefixime], the CC50 at 24 h is above 20 µM. Turning to `CO/N=C(\C(=O)N[C@@H]1C(=O)N2C(C(=O)O)=C(CSc3nnnn3C)CS[C@H]12)c1csc(N)n1` [Cefmenoxime hydrochloride], the CC50 at 24 h was above 50 µM. The figure for `CO[C@@]1(NC(=O)CSCC#N)C(=O)N2C(C(=O)O)=C(CSc3nnnn3C)CS[C@@H]21` [Cefmetazole sodium] is above 50 µM; for `CO/N=C(\C(=O)N[C@@H]1C(=O)N2C(C(=O)O)=C(CSc3nc(C)c(CC(=O)O)s3)CS[C@H]12)c1csc(N)n1` [Cefodizime sodium] it is above 50 µM; for `O=C(O)C1=C(CSc2nnnn2CS(=O)(=O)O)CS[C@@H]2[C@H](NC(=O)[C@H](O)c3ccccc3)C(=O)N12` [Cefonicid sodium] it is above 50 µM. The figure for `CCN1CCN(C(=O)N[C@@H](C(=O)N[C@@H]2C(=O)N3C(C(=O)O)=C(CSc4nnnn4C)CS[C@H]23)c2ccc(O)cc2)C(=O)C1=O` [Cefoperazone sodium] is above 50 µM; for `NCc1ccccc1CC(=O)N[C@@H]1C(=O)N2C(C(=O)O)=C(CSc3nnnn3CC(=O)O)CS[C@H]12` [Ceforanide] it is above 20 µM. Turning to `CO/N=C(\C(=O)N[C@@H]1C(=O)N2C(C(=O)O)=C(Cn3ccc(=N)n3CCO)CS[C@H]12)c1csc(N)n1` [Cefoselis sulfate], the CC50 at 24 h was above 50 µM. For `CO/N=C(\C(=O)N[C@@H]1C(=O)N2C(C(=O)O)=C(COC(C)=O)CS[C@H]12)c1csc(N)n1` [Cefotaxime sodium] the value was above 50 µM; for `CO[C@@]1(NC(=O)C2SC(=C(C(N)=O)C(=O)O)S2)C(=O)N2C(C(=O)O)=C(CSc3nnnn3C)CS[C@@H]21` (some centres unmarked) [Cefotetan], above 20 µM; for `CN(C)CCn1nnnc1SCC1=C(C(=O)O)N2C(=O)[C@@H](NC(=O)Cc3csc(N)n3)[C@H]2SC1` [Cefotiam hydrochloride], above 20 µM. Take `CO[C@@]1(NC(=O)Cc2cccs2)C(=O)N2C(C(=O)O)=C(COC(N)=O)CS[C@@H]21` [Cefoxitin]: the CC50 at 24 h was above 50 µM. The figure for `CO/N=C(\C(=O)N[C@@H]1C(=O)N2C(C(=O)[O-])=C(C[n+]3ccn4ncccc43)CS[C@H]12)c1nsc(N)n1` [Cefozopran hydrochloride] is above 50 µM. For `Cc1cc(O)c(C(=O)N[C@@H](C(=O)N[C@@H]2C(=O)N3C(C(=O)O)=C(CSc4nnnn4C)CS[C@H]23)c2ccc(O)cc2)cn1` [Cefpiramide acid] the value was above 50 µM; for `CO/N=C(\C(=O)N[C@@H]1C(=O)N2C(C(=O)[O-])=C(C[n+]3cccc4c3CCC4)CS[C@H]12)c1csc(N)n1` [Cefpirome sulfate], above 50 µM; for `COCC1=C(C(=O)OC(C)OC(=O)OC(C)C)N2C(=O)[C@@H](NC(=O)/C(=N\OC)c3csc(N)n3)[C@H]2SC1` (some centres unmarked) [Cefpodoxime proxetil], above 50 µM. Take `C/C=C/C1=C(C(=O)O)N2C(=O)[C@@H](NC(=O)[C@H](N)c3ccc(O)cc3)[C@H]2SC1` [Cefprozil monohydrate]: the CC50 at 24 h is above 50 µM.

For the compound `CO/N=C(\C(=O)N[C@@H]1C(=O)N2C(C(=O)[O-])=C(C[n+]3cccc4c3CCCC4)CS[C@H]12)c1csc(N)n1` [Cefquinome sulfate], the half-maximal cytotoxic concentration (CC50) at 24 h was above 50 µM. The figure for `COC1=C(C(=O)O)N2C(=O)[C@@H](NC(=O)[C@H](N)C3=CCC=CC3)[C@H]2SC1` [Cefroxadine] is above 50 µM; for `NC(=O)c1cc[n+](CC2=C(C(=O)O)N3C(=O)[C@@H](NC(=O)[C@@H](c4ccccc4)S(=O)(=O)[O-])[C@H]3SC2)cc1` [Cefsulodin sodium] it is above 20 µM. The figure for `CC(C)(O/N=C(\C(=O)N[C@@H]1C(=O)N2C(C(=O)[O-])=C(C[n+]3ccccc3)CS[C@H]12)c1csc(N)n1)C(=O)O` [Ceftazidime pentahydrate] is above 20 µM; for `CO/N=C(\C(=O)N[C@@H]1C(=O)N2C(C(=O)O)=C(Cn3nnc(C)n3)CS[C@H]12)c1csc(N)n1` [Cefteram] it is above 50 µM; for `O=C(Cn1cnnn1)N[C@@H]1C(=O)N2C(C(=O)O)=C(CSc3nncs3)CS[C@H]12` [Ceftezole sodium] it is above 50 µM. The figure for `Nc1nc(/C(=C/CC(=O)O)C(=O)N[C@@H]2C(=O)N3C(C(=O)O)=CCS[C@H]23)cs1` [Ceftibuten] is above 50 µM. `CO/N=C(\C(=O)N[C@@H]1C(=O)N2C(C(=O)O)=C(CSC(=O)c3ccco3)CS[C@H]12)c1csc(N)n1` [Ceftiofur] returned a CC50 at 24 h above 50 µM. For `CO/N=C(\C(=O)N[C@@H]1C(=O)N2C(C(=O)O)=CCS[C@H]12)c1csc(N)n1` [Ceftizoxime sodium] the value was above 50 µM.

Usually CC50 stands for the concentration at which the toxic effect on the cells reaches its halfway point. High values mean lower toxicity to the cells, low ones greater toxicity to the cells.

Source of the values: paper PMC6792352, “Limited Chemical Structural Diversity Found to Modulate Thyroid Hormone Receptor in the Tox21 Chemical Library” (Environmental Health Perspectives, 2019).
